We go through nine sequences from patent US9789181B2, “PAN-DR binding polypeptides and uses thereof” (Epimmune Inc., priority 2009, dated 2017).

Where no end group is shown, it is not given here.

Assay [1] has as its target HLA DRB1 *0101 (Homo sapiens, UniProt P01903+P01911, A100R/D57E/F55L/F60I/F76Y/I96L/L162R/M171V/P40L/Q125E/R42F/V115G/Y59C). In words: IC50nM to purified HLA | DRB1 *0101. The method, then:
(§1) Table printed on a drawing sheet, FIG. 1 (contd.)
Head of the field: IC50nM to purified HLA | DRB1 *0101
(§2) First copying reader's note: Continued from the preceding sheet of FIG. 1; decimal commas are used, the analog names give the substituted residues and positions in PADRE, and some values are printed in italics or bold and some SEQ ID NOs bold and underlined without a legend on this sheet.
Where the first naming reader finds the target: head: IC50nM to purified HLA | DRB1 *0101

The target of assay [2] is HLA DRB1 *0301 (Homo sapiens, UniProt P01903+P01911, A100K/A102G/A103R/A169T/F55Y/I96L/K41T/L162R/M171V/P40S/Q125H/Q178H/Q39Y/R42S/S66N/T106N/T262R/W38E/Y61H). Put plainly: IC50nM to purified HLA | DRB1 *0301. The method, then: as §1
HLA DRB1 *0301, sequence (P01903 26-254 limits assumed, other chains not shown): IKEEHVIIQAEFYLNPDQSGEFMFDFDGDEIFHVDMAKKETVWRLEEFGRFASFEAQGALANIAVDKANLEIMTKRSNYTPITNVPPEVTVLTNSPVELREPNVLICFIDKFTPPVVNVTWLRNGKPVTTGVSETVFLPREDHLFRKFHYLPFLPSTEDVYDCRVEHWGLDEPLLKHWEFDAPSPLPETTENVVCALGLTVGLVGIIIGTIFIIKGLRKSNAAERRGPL
Head of the field: IC50nM to purified HLA | DRB1 *0301
as §2
Where the first naming reader finds the target: head: IC50nM to purified HLA | DRB1 *0301

In assay [3] the target is HLA DRB1 *0401 (Homo sapiens, UniProt P01903+P01911, A100K/A169T/F76Y/I96L/K127E/L162R/M171V/N62H/P40V/Q125Y/R42H/S133A/S149N/S66Y/V115G/V209L/W38E). Put plainly: IC50nM to purified HLA | DRB1 *0401. The method, then: as §1
Head of the field: IC50nM to purified HLA | DRB1 *0401
as §2
Where the first naming reader finds the target: head: IC50nM to purified HLA | DRB1 *0401

The target in assay [4] is HLA DRB1 *0404 (Homo sapiens, UniProt P01903+P01911, A100R/A169T/F76Y/I96L/K127E/L162R/M171V/N62H/P40V/Q125Y/R42H/S133A/S149N/S66Y/V209L/W38E). In words: IC50nM to purified HLA | DRB1 *0404. How it is done: as §1
Head of the field: IC50nM to purified HLA | DRB1 *0404
as §2
Where the first naming reader finds the target: head: IC50nM to purified HLA | DRB1 *0404

In assay [5] the target is HLA DRB1 *0802 (Homo sapiens, UniProt P01903+P01911, A100R/A103L/A169T/F76Y/H45Y/I96F/K41T/L162R/M171V/P40S/Q125H/Q178H/Q39Y/Q99D/R218S/R42G/S66Y/V115G/W38E). Put plainly: IC50nM to purified HLA | DRB1 *0802. The method, then: as §1
Head of the field: IC50nM to purified HLA | DRB1 *0802
as §2
Where the first naming reader finds the target: head: IC50nM to purified HLA | DRB1 *0802

In assay [6] the target is HLA DRB1 *0901 (Homo sapiens, UniProt P01903+P01911, A100R/A103E/D57H/D86V/F55Y/F60I/F76Y/I96F/K127E/L162R/M171V/P40D/Q125H/Q99R/R33Q/R42F/S133A/S66N/T210M/V115G/W38K/Y107V/Y59G/Y89S). In words: IC50nM to purified HLA | DRB1 *0901. How it is done: as §1
Head of the field: IC50nM to purified HLA | DRB1 *0901
as §2
Where the first naming reader finds the target: head: IC50nM to purified HLA | DRB1 *0901

For assay [7], the target named is HLA DRB1 *1101 (Homo sapiens, UniProt P01903+P01911, A100R/A169T/A87E/I96F/K41T/L162R/M171V/P40S/Q125H/Q178H/Q39Y/Q99D/R42S/S66Y/T262R/V115G/W38E). In words: IC50nM to purified HLA | DRB1 *1101. How it is done:
as §1
Head of the field: IC50nM to purified HLA | DRB1 *1101
as §2
Where the first naming reader finds the target: head: IC50nM to purified HLA | DRB1 *1101

In assay [8] the target is HLA DRB1 *1501 (Homo sapiens, UniProt P01903+P01911). Put plainly: IC50nM to purified HLA | DRB1 *1501. How it is done: as §1
Head of the field: IC50nM to purified HLA | DRB1 *1501
as §2
Where the first naming reader finds the target: head: IC50nM to purified HLA | DRB1 *1501

Assay [9] has as its target HLA DRB4 *0101 (Homo sapiens, UniProt P01903+P13762, G164S). Put plainly: IC50nM to purified HLA | DRB4 *0101. The method, then:
as §1
Head of the field: IC50nM to purified HLA | DRB4 *0101
as §2
Where the first naming reader finds the target: head: IC50nM to purified HLA | DRB4 *0101

For assay [10], the target named is HLA DRB1 *0405 (Homo sapiens, UniProt P01903+P01911, A100R/A169T/D86S/F76Y/I96L/K127E/L162R/M171V/N62H/P40V/Q125Y/R42H/S133A/S149N/S66Y/V115G/V209L/W38E). In words: IC50nM to purified HLA | DRB1 *0405. The method, then:
as §1
Head of the field: IC50nM to purified HLA | DRB1 *0405
as §2
Where the first naming reader finds the target: head: IC50nM to purified HLA | DRB1 *0405

The target in assay [11] is HLA DRB1 *0701 (Homo sapiens, UniProt P01903+P01911, A100R/A102G/A103Q/D57E/D86V/E43K/F76Y/K127E/L162R/M171V/P40G/Q125H/Q99D/R33Q/R42Y/R54Q/S133A/S66F/T210M/V115G/Y107V/Y59L/Y89S). Put plainly: IC50nM to purified HLA | DRB1 *0701. The method, then:
as §1
Head of the field: IC50nM to purified HLA | DRB1 *0701
as §2
Where the first naming reader finds the target: head: IC50nM to purified HLA | DRB1 *0701

Assay [12] concerns the target HLA DRB1 *1302 (Homo sapiens, UniProt P01903+P01911, A100E/A169T/K41T/L162R/M171V/P40S/Q125H/Q178H/Q39Y/Q99D/R42S/S66N/T262R/V115G/W38E/Y61H). In words: IC50nM to purified HLA | DRB1 *1302. The method, then: as §1
Head of the field: IC50nM to purified HLA | DRB1 *1302
as §2
Where the first naming reader finds the target: head: IC50nM to purified HLA | DRB1 *1302

The target of assay [13] is HLA DRB5 *0101 (Homo sapiens, UniProt P01903+Q30154). In words: IC50nM to purified HLA | DRB5 *0101. The method, then:
as §1
Head of the field: IC50nM to purified HLA | DRB5 *0101
as §2
Where the first naming reader finds the target: head: IC50nM to purified HLA | DRB5 *0101

HLA DRB1 *1302, sequence (P01903 26-254 limits assumed, other chains not shown): as above
HLA DRB1 *1101, sequence (P01903 26-254 limits assumed, other chains not shown): as above
HLA DRB4 *0101, sequence (P01903 26-254 limits assumed): as the sequence (P01903 26-254 limits assumed, other chains not shown) above
HLA DRB4 *0101, sequence (P13762 whole entry G164S): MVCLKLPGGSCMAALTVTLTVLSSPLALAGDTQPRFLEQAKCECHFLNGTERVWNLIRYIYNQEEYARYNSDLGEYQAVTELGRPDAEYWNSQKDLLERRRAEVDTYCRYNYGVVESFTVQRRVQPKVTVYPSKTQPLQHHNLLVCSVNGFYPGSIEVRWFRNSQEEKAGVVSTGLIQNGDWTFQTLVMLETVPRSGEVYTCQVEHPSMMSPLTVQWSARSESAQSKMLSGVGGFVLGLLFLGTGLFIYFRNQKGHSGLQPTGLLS

Regarding AAAEFVAAYTLHAAA [SEQ ID NO: 47], the IC50 (commonly the concentration at which inhibition is half-maximal) was 3.9 nM in assay [1]; 144 nM in assay [2]; 2.3 nM in assay [3]; 3.2 nM in [4]; 13 nM in assay [5]; 28 nM in assay [6]. For the same sequence, the IC50 in assay [7] stood at 27 nM; in assay [8], 6.9 nM; in [9] it was 448 nM; in [10], 17 nM; in assay [11] it was 161 nM; in assay [12], 1450 nM. The sequence also had an IC50 in assay [13] of 52 nM.

In the case of AAAEFVAAFTLHAAA [SEQ ID NO: 48], the IC50 was determined as 6.1 nM in [1]; 2.1 nM in assay [3]; 2.6 nM in [4]; 19 nM in assay [5]; 18 nM in assay [6]; 48 nM in assay [7]. The IC50 in assay [8] amounted to 50 nM; in assay [9] it was 132 nM; in [10] it was 14 nM; in [11], 140 nM; in assay [12] it was 2020 nM.

In the case of AAADFVAAFTLHAAA [SEQ ID NO: 43], the 50% inhibitory concentration (IC50) in [1] was 7.3 nM; in assay [2], 746 nM; in assay [3], 4.7 nM; in [4], 3.7 nM; in [7] it was 44 nM; in assay [8] it was 97 nM. For the same sequence, the IC50 in assay [9] was determined as 1050 nM; in [10] it was 11 nM; in [11], 223 nM.

For the sequence AAAHFVAANTLKADA [SEQ ID NO: 34], the IC50 was determined as 3120 nM in assay [2]; 21 nM in assay [3]; 13 nM in assay [4]; 67 nM in assay [5]; 60 nM in assay [6]; 91 nM in [7]. Moreover, the IC50 in assay [8] is 172 nM; in assay [10] it was 36 nM; in assay [11], 88 nM; in assay [13] it was 18 nM.

As for AAAHFVAAYTLKADA [SEQ ID NO: 32], the IC50 came to 5.4 nM in [1]; 11 nM in [3]; 9.6 nM in assay [4]; 31 nM in assay [6]; 11 nM in [8]; 48 nM in [11]. The sequence further returned an IC50 in assay [13] of 17 nM.

As to AAAHFVAAFTLKADA [SEQ ID NO: 33], the half-inhibitory concentration (IC50) in assay [1] was 6.7 nM; in assay [3], 15 nM; in assay [4] it was 9.5 nM; in [6], 30 nM; in assay [7], 76 nM; in [8], 37 nM. Further, the IC50 turned out to be 948 nM in [9], 19 nM in [10], 83 nM in assay [11] and 594 nM in assay [12].

With AAAEFVAAWTLHAAA [SEQ ID NO: 46], the IC50 in assay [2] was determined as 134 nM; in [3], 3.1 nM; in assay [4], 4.1 nM; in assay [5], 24 nM; in [6] it was 44 nM; in [7], 38 nM. Besides, the IC50 was determined as 27 nM in assay [10], 97 nM in assay [11], 1150 nM in assay [12] and 48 nM in [13].

Turning to AAADFVAAWTLKAAA [SEQ ID NO: 40], the IC50 in [1] was found to be 7 nM; in assay [2] it was 330 nM; in assay [3], 5.1 nM; in assay [4], 4 nM; in [5], 17 nM; in assay [7] it was 19 nM. The IC50 in assay [8] turned out to be 64 nM; in [9] it was 1540 nM; in [10], 30 nM; in assay [11], 195 nM; in [12], 4000 nM.

Consider AAADFVAANTLHAAA [SEQ ID NO: 44], for which the IC50 in assay [1] stood at 7.8 nM; in assay [2], 731 nM; in assay [3], 6.6 nM; in [4], 8.6 nM; in assay [5] it was 44 nM; in assay [6], 82 nM. Also, the IC50 came to 580 nM in [8], 196 nM in assay [11], 187 nM in assay [12] and 80 nM in assay [13].
